Assay results taken from ChEMBL document CHEMBL1136374, “Inactivation of S-adenosyl-L-homocysteine hydrolase with novel 5'-thioadenosine derivatives. Antiviral effects” (Bioorg Med Chem Lett, 2003).
≈ marks a conversion by molar mass, not a printed value. Calls of active or inactive are those of the source. The rule behind the calls is not given here.

What was measured:
E6SM = experiment: Compound tested for cytotoxicity in human embryonic skin muscle E6SM cell cultures; format: functional
Tacaribe virus = experiment: Activity against Taccaribe virus was determined; format: functional; conditions: Mammarenavirus tacaribeense
Punta Toro virus = experiment: Antiviral activity against Punta Toro virus; No activity; format: functional, organism-based
HEL [1] = experiment: Antiviral activity against Cytomegalovirus virus (CMV) strain Davis in HEL cells; No specific activity; format: functional, cell-based; conditions: Homo sapiens
Sindbis virus = experiment: Antiviral activity against Sindbis; No activity; format: functional, organism-based
Adenosylhomocysteinase [2] = target: T1, Adenosylhomocysteinase (Homo sapiens, UniProt P23526); experiment: Change in the S-Adenosyl-homocysteine hydrolase enzyme's NAD+ content until complete inactivation was determined
Target sequence in this assay (P23526 2-432 limits assumed): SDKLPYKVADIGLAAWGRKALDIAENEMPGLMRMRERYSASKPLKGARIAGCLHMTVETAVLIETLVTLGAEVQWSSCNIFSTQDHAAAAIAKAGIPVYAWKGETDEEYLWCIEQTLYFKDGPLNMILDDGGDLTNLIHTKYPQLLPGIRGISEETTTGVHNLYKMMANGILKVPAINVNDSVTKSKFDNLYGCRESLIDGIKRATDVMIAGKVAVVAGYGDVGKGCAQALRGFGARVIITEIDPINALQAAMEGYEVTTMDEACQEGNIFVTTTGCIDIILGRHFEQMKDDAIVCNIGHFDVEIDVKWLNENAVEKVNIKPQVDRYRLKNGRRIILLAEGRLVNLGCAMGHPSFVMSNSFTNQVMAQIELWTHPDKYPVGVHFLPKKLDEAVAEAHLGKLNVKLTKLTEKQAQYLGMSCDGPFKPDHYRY

Adenosylhomocysteinase [3] = target: T1, Adenosylhomocysteinase; experiment: Enzyme kinetic property: kinact value was determined
Target sequence in this assay (P23526 2-432 limits assumed): as above

Junin virus = experiment: Activity against Junin virus was determined; format: functional; conditions: Mammarenavirus juninense
Coxsackievirus B4 = experiment: Antiviral activity against Coxsackie B4 virus; No activity; format: functional, organism-based
Adenosylhomocysteinase [4] = target: T1, Adenosylhomocysteinase; experiment: Binding affinity against S-Adenosyl-homocysteine hydrolase was determined
Target sequence in this assay (P23526 whole entry): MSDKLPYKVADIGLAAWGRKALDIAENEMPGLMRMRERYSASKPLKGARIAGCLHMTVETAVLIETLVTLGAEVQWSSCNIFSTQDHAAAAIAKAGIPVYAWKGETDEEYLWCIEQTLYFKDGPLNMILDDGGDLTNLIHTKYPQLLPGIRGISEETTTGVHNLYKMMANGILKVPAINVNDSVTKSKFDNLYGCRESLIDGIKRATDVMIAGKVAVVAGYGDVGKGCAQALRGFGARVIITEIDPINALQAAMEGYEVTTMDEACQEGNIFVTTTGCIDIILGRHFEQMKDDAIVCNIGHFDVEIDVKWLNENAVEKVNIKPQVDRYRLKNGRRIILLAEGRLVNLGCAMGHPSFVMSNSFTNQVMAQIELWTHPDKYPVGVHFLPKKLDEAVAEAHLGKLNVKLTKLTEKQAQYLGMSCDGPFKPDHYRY

HEL [5] = experiment: Antiviral activity against Cytomegalovirus virus (CMV) strain AD-169 in HEL cells; No specific activity; format: functional, cell-based; conditions: Homo sapiens
Human respirovirus 3 = experiment: Antiviral activity against Parainfluenza-3; No activity; format: functional, organism-based
Vero = experiment: Compound tested for cytotoxicity in vero cell culture was determined; format: functional, Chlorocebus sabaeus

| SMILES | MTC (E6SM) | MIC (Tacaribe virus) | MIC (Punta Toro virus) | MIC (HEL [1]) | MIC (Sindbis virus) | NAD (Adenosylhomocysteinase [2]) | K inact (Adenosylhomocysteinase [3]) | MIC (Junin virus) | MIC (Coxsackievirus B4) | Ki (Adenosylhomocysteinase [4]) | MIC (HEL [5]) | MIC (Human respirovirus 3) | MTC (Vero) |
| --- | --- | --- | --- | --- | --- | --- | --- | --- | --- | --- | --- | --- | --- |
| C=CSC[C@H]1OC(n2cnc3c(N)ncnc32)[C@H](O)[C@@H]1O (stereo partly specified) | >650 µM | 40 µM (≈ 12.4 µg/mL) | inactive | inactive | inactive | 18% | 0.07 min⁻¹ | 65 µM (≈ 20.1 µg/mL) | inactive | 4 µM | inactive | inactive | >650 µM |
| N#CSC[C@H]1OC(n2cnc3c(N)ncnc32)[C@H](O)[C@@H]1O (stereo partly specified) | >650 µM | – | – | – | – | 16% | 0.59 min⁻¹ | – | – | 67 µM | – | – | – |
| C#CSC[C@H]1OC(n2cnc3c(N)ncnc32)[C@H](O)[C@@H]1O (stereo partly specified) | 30 µM | – | – | – | – | 36% | 0.12 min⁻¹ | – | – | 10 µM | – | – | – |
